Source: the NIST ThermoML archive (doi:10.1016/j.jct.2017.08.004)

Assay: molar heat capacity at constant pressure
Conditions: 101.33 kPa

OC[C@@H](O)[C@H](O)[C@@H](O)CO [xylitol]
molar heat capacity at constant pressure [J/K/mol]
Conditions | Small sample (50 mg) DSC | relaxation calorimetry
261.15 K, Crystal | 182.91 | –
262.13 K, Crystal | – | 182.23
262.15 K, Crystal | 183.56 | –
263.15 K, Crystal | 184.15 | –
264.15 K, Crystal | 184.93 | –
265.15 K, Crystal | 185.58 | –
266.15 K, Crystal | 186.01 | –
267.15 K, Crystal | 186.68 | –
268.15 K, Crystal | 187.58 | –
269.15 K, Crystal | 188.3 | –
270 K, Crystal | – | 187.42
270.15 K, Crystal | 188.75 | –
271.15 K, Crystal | 189.44 | –
272.13 K, Crystal | – | 189.16
272.15 K, Crystal | 190.09 | –
273.15 K, Crystal | 190.92 | 189.56
274.15 K, Crystal | 191.54 | –
275.15 K, Crystal | 192.36 | –
276.15 K, Crystal | 193.1 | –
277.15 K, Crystal | 193.74 | –
278.15 K, Crystal | 194.49 | –
279.15 K, Crystal | 195.25 | –
280 K, Crystal | – | 194.26
280.15 K, Crystal | 195.98 | –
281.15 K, Crystal | 196.83 | –
282.15 K, Crystal | 197.52 | –
282.21 K, Crystal | – | 195.78
283.15 K, Crystal | 198.24 | –
284.15 K, Crystal | 198.78 | –
285.15 K, Crystal | 199.46 | –
286.15 K, Crystal | 200.2 | –
287.15 K, Crystal | 200.97 | –
288.15 K, Crystal | 201.79 | –
289.15 K, Crystal | 202.38 | –
290 K, Crystal | – | 201.22
290.15 K, Crystal | 203.24 | –
291.15 K, Crystal | 204 | –
292.15 K, Crystal | 204.53 | –
292.34 K, Crystal | – | 202.53
293.15 K, Crystal | 205.39 | –
294.15 K, Crystal | 206.39 | –
295.15 K, Crystal | 207.02 | –
296.15 K, Crystal | 207.76 | –
297.15 K, Crystal | 208.58 | –
298.15 K, Crystal | 209.23 | 207
299.15 K, Crystal | 209.95 | –
300 K, Crystal | – | 208.32
300.15 K, Crystal | 210.89 | –
301.15 K, Crystal | 211.84 | –
302.15 K, Crystal | 212.55 | –
302.38 K, Crystal | – | 210.13
303.15 K, Crystal | 213.48 | –
304.15 K, Crystal | 214.26 | –
305 K, Crystal | 215.28 | –
305.15 K, Crystal | 215.11 | –
306.15 K, Crystal | 216.14 | –
307.15 K, Crystal | 217.06 | –
308.15 K, Crystal | 217.82 | –
309.15 K, Crystal | 218.75 | –
310 K, Crystal | 219.82 | –
310.15 K, Crystal | 219.97 | –
311.15 K, Crystal | 220.76 | –
312.15 K, Crystal | 221.67 | –
313.15 K, Crystal | 222.64 | –
314.15 K, Crystal | 223.41 | –
315 K, Crystal | 224.06 | –
315.15 K, Crystal | 224.2 | –
316.15 K, Crystal | 225.05 | –
317.15 K, Crystal | 225.99 | –
318.15 K, Crystal | 226.72 | –
319.15 K, Crystal | 227.57 | –
320 K, Crystal | 228.13 | –
320.15 K, Crystal | 228.44 | –
321.15 K, Crystal | 229.1 | –
322.15 K, Crystal | 229.81 | –
323.15 K, Crystal | 230.76 | –
324.15 K, Crystal | 231.54 | –
325 K, Crystal | 232.15 | –
325.15 K, Crystal | 232.32 | –
326.15 K, Crystal | 233.13 | –
327.15 K, Crystal | 234.07 | –
328.15 K, Crystal | 234.91 | –
329.15 K, Crystal | 235.68 | –
330 K, Crystal | 236.23 | –
330.15 K, Crystal | 236.5 | –
331.15 K, Crystal | 237.35 | –
332.15 K, Crystal | 238.2 | –
333.15 K, Crystal | 238.98 | –
334.15 K, Crystal | 239.74 | –
335 K, Crystal | 240.51 | –
335.15 K, Crystal | 240.54 | –
336.15 K, Crystal | 241.37 | –
337.15 K, Crystal | 242.09 | –
338.15 K, Crystal | 242.99 | –
339.15 K, Crystal | 244.05 | –
340 K, Crystal | 245.1 | –
340.15 K, Crystal | 244.86 | –
341.15 K, Crystal | 245.84 | –
342.15 K, Crystal | 246.78 | –
343.15 K, Crystal | 247.9 | –
345 K, Crystal | 250.14 | –
384.05 K, Liquid | 437.55 | –
384.15 K, Liquid | 437.54 | –
385 K, Liquid | 437.31 | –
385.15 K, Liquid | 437.23 | –
386.15 K, Liquid | 436.89 | –
387.15 K, Liquid | 436.55 | –
388.15 K, Liquid | 436.95 | –
389.15 K, Liquid | 436.95 | –
390 K, Liquid | 437.71 | –
390.15 K, Liquid | 437.09 | –
391.15 K, Liquid | 437.18 | –
392.15 K, Liquid | 437.31 | –
393.15 K, Liquid | 437.7 | –
394.15 K, Liquid | 438.11 | –
395 K, Liquid | 438.53 | –
395.15 K, Liquid | 438.36 | –
396.15 K, Liquid | 438.65 | –
397.15 K, Liquid | 439 | –
398.15 K, Liquid | 439.02 | –
399.15 K, Liquid | 439.36 | –
400 K, Liquid | 439.66 | –
400.15 K, Liquid | 439.81 | –
401.15 K, Liquid | 440.13 | –
402.15 K, Liquid | 440.23 | –
403.15 K, Liquid | 440.54 | –
404.15 K, Liquid | 441 | –
405 K, Liquid | 440.98 | –
405.15 K, Liquid | 441.38 | –
406.15 K, Liquid | 441.87 | –
407.15 K, Liquid | 442.08 | –
408.15 K, Liquid | 442.44 | –
409.15 K, Liquid | 442.7 | –
410 K, Liquid | 442.38 | –
410.15 K, Liquid | 442.88 | –
411.15 K, Liquid | 443.4 | –
412.15 K, Liquid | 443.35 | –
413.15 K, Liquid | 443.38 | –
414.15 K, Liquid | 443.78 | –
415 K, Liquid | 443.73 | –
415.15 K, Liquid | 443.82 | –
416.15 K, Liquid | 444.07 | –
417.15 K, Liquid | 444.35 | –
418.15 K, Liquid | 444.54 | –
419.15 K, Liquid | 444.75 | –
420 K, Liquid | 444.92 | –
420.15 K, Liquid | 444.83 | –
421.15 K, Liquid | 444.89 | –
422.15 K, Liquid | 445.1 | –
423.15 K, Liquid | 445.32 | –
424.15 K, Liquid | 445.31 | –
425 K, Liquid | 445.83 | –
425.15 K, Liquid | 445.36 | –
426.15 K, Liquid | 445.64 | –
427.15 K, Liquid | 445.75 | –
428.15 K, Liquid | 445.78 | –
429.15 K, Liquid | 445.83 | –
430 K, Liquid | 446.33 | –
430.15 K, Liquid | 445.91 | –
431.15 K, Liquid | 446.11 | –
432.15 K, Liquid | 446.26 | –
433.15 K, Liquid | 446.16 | –
434.15 K, Liquid | 446.18 | –
435 K, Liquid | 446.32 | –
435.15 K, Liquid | 446.7 | –
436.15 K, Liquid | 446.78 | –
437.15 K, Liquid | 446.54 | –
438.15 K, Liquid | 446.6 | –
